Measured values published in patent US6583156B1 (Vernalis Research Limited, priority 1998, dated 2003).
Structures can show the parent of a compound that is named as a salt.

Test system: not given
Test: not given
Conditions: not given

`COc1cc(C(O)C2CCCCC2)c2ccccc2n1.Cl` (stereo not shown) and `Cc1cc(C(O)C2CCCCC2)c2cccc(C)c2n1` (stereo not drawn) [Example 54, α-Cyclohexyl-2,8-dimethyl-4-quinolinemethanol] cannot be ordered by melting point: 155.9 to 156.3 °C for the first, 155 to 157 °C for the second.

First: OC(c1ccccc1)c1cc(C(F)(F)F)nc2c(C(F)(F)F)cccc12 (stereo not drawn) [Example 1, 2,8-Bis(trinfluoromethyl)-α-phenyl-4-quinolinemethanol]
Second: OC(Cc1cc(C(F)(F)F)nc2c(C(F)(F)F)cccc12)c1ccccc1 (stereo not drawn) [Example 9, 2,8-Bis(trifluoromethyl)-α-phenyl-4-quinolineethanol]
The melting point of the first is higher: 151 to 152 °C for the first, 111 to 112 °C for the second.

Compared with `OC(c1cc(C(F)(F)F)nc2c(C(F)(F)F)cccc12)c1cc(C(F)(F)F)nc2c(C(F)(F)F)cccc12` [Example 8, Bis(2,8-bis(trifluoromethyl)-4-quinolinyl)methanol], `OC(c1ccccc1F)c1cc(C(F)(F)F)nc2c(C(F)(F)F)cccc12` (stereo not drawn) [Example 22, 2,8-Bis(trifluoromethyl)-α-(2-fluorophenyl)-4-quinolinemethanol] is lower in melting point: 198 to 199 °C for the first, 119.5 to 120.8 °C for the second.

Compared with `OC1(c2cc(C(F)(F)F)nc3c(C(F)(F)F)cccc23)CCCc2ccccc21` (stereo not shown) [Example 11, 1-(2,8-Bis(trifluoromethyl)-4-quinolinyl)-1,2,3,4-tetrabydro-1-naphthol], `OC1(c2cc(C(F)(F)F)nc3c(C(F)(F)F)cccc23)C=CCC1` (stereo not shown) [Example 53, 1-(2,8-Bis(trifluoromethyl)-4-quinolinyl)cyclopent-2-ene-1-ol] is lower in melting point: 128.8 to 129.4 °C for the first, 73 to 74 °C for the second.

First: Cc1c(C(F)(F)F)nc2c(C(F)(F)F)cccc2c1C(O)c1cccs1 (stereo not drawn) [Example 16, 2,8-Bis(trifluoromethyl)-3-methyl-α-(2-thienyl)-4-quinolinemethanol]
Second: OC(c1c(Cl)cccc1Cl)c1cc(C(F)(F)F)nc2c(C(F)(F)F)cccc12 (stereo not drawn) [Example 20, 2,8-Bis(trifluoromethyl)-α-(2,6-dichlorophenyl)-4-quinolinemethanol]
The melting point of the first is lower: 125.1 to 125.8 °C for the first, 151.2 to 151.7 °C for the second.

First: OC(c1ccccc1Br)c1cc(C(F)(F)F)nc2c(C(F)(F)F)cccc12 (stereo not drawn) [Example 21, 2,8-Bis(trifluoromethyl)-α-(2-bromophenyl)-4-quinolinemethanol]
Second: Nc1ccccc1C(O)c1cc(C(F)(F)F)nc2c(C(F)(F)F)cccc12 (stereo not drawn) [Example 76, α-(2-Aminophenyl)-2,8-bis(trifluoromethyl)-4-quinolinemethanol]
The melting point of the first is higher: 147 to 149 °C for the first, 145.9 to 146.2 °C for the second.

First: COc1ccccc1C(O)c1cc(C(F)(F)F)nc2c(C(F)(F)F)cccc12 (stereo not shown) [Example 23]
Second: OC(Cc1cc(C(F)(F)F)nc2c(C(F)(F)F)cccc12)c1cc2ccccc2o1 (stereo not drawn) [Example 51, α-(2-Benzofuranyl)-2,8-bis(trifluoromethyl)-4-quinolineethanol]
The melting point of the first is higher: 132 to 134 °C for the first, 123 to 124 °C for the second.

First: Cc1cccc2c(C(O)c3ccsc3)cc(C(F)(F)F)nc12 (stereo not drawn) [Example 28, 8-Methyl-α-(3-thienyl)-2-trifluoromethyl-4-quinolinemethanol]
Second: COc1cccc2c(C(O)c3ccsc3)cc(C(F)(F)F)nc12 (stereo not drawn) [Example 46, 8-Methoxy-α-(3-thienyl)-2-trifluoromethyl-4-quinolinemethanol]
The melting point of the first is lower: 113 to 114 °C for the first, 157 to 158 °C for the second.

First: CN(C)c1cc(C(O)c2ccccc2)c2ccccc2n1 (stereo not drawn) [Example 35, 2-Dimethylamino-α-phenyl-4-quinolinemethanol]
Second: OC(c1ccccc1)c1cc(Cl)nc2ccccc12 (stereo not drawn) [Example 83, 2-Chloro-α-phenyl-4-quinolinemethanol]
The melting point of the first is higher: 153.6 to 154.3 °C for the first, 144 to 146 °C for the second.

First: OC(c1ccsc1)c1cc(-c2ccccc2)nc2ccccc12 (stereo not drawn) [Example 41, 2-Phenyl-α-(3-thienyl)-4-quinolinemethanol]
Second: OC(c1ccccc1)c1cc(-c2ccccc2)nc2ccccc12 (stereo not drawn) [Example 91, 2,α-Diphenyl-4-quinolinemethanol]
The melting point of the first is higher: 158 to 159 °C for the first, 111 to 112 °C for the second.

First: OC(c1ccsc1)c1cc(C(F)(F)F)nc2ccccc12 (stereo not drawn) [Example 43, α-(3-Thienyl)-2-trifluoromethyl-4-quinolinemethanol]
Second: OC1(c2cc(C(F)(F)F)nc3ccccc23)CCSC1 (stereo not shown) [Example 44, 3-(2-trifluoromethyl-4-quinolinyl)tetrahydrothiophene-3-ol]
The melting point of the first is higher: 144 to 146 °C for the first, 130 to 131 °C for the second.

First: O=C(NCc1ccccc1)c1cc(C(O)C2CCCCC2)c2ccccc2n1 (stereo not shown) [Example 61, N-Benzyl-4-(1-cyclohexyl-1-hydroxymethyl)-2-quinolinecarboxamide]
Second: OC(c1cc(NCc2ccccc2)nc2ccccc12)C1CCCCC1 (stereo not drawn) [Example 79, 2-Benzylamino-α-cyclohexyl-4-quinolinemethanol]
The melting point of the first is higher: 152.8 to 153.3 °C for the first, 122.5 to 123.1 °C for the second.

First: Cc1cccc2c(C(O)c3ccccc3)cc(Br)nc12 (stereo not drawn) [Example 65, 2-Bromo-8-methyl-α-phenyl-4-quinolinemethanol]
Second: COc1cc(C(O)c2ccccn2)c2cccc(C)c2n1 (stereo not drawn) [Example 67, 2-Methoxy-8-methyl-α-(2-pyridyl)-4-quinolinemethanol]
The melting point of the first is higher: 130.7 to 131.8 °C for the first, 126.8 to 127.6 °C for the second.

First: OCCCCC(O)c1cc(C(F)(F)F)nc2c(C(F)(F)F)cccc12 (stereo not shown) [Example 82, 1-(2,8-Bis(trifluoromethyl)-4-quinolinyl)-5-hydroxypentanol]
Second: FC(F)(F)c1cc(-c2ccco2)c2cccc(C(F)(F)F)c2n1 [Example 93, 2,8-Bis(trifluoromethyl)-4-(2-furanyl)quinoline]
The melting point of the first is higher: 120.6 to 120.9 °C for the first, 82 to 83 °C for the second.

For `Cc1cc(C(O)c2ccccc2)c2ccccc2n1` (stereo not drawn) (as salt: salt) [Example 39, 2-Methyl-α-phenyl-4-quinolinemethanol], the melting point was 192 °C (dec.).
In the case of `Cc1cc(C(O)c2ccsc2)c2ccccc2n1` (stereo not drawn) (as salt: salt) [Example 42, 2-Methyl-α-(3-thienyl)-4-quinolinemethanol], the melting point is reported as 200 °C (dec.).
For `OC(c1cccs1)c1ccnc2ccccc12` (stereo not drawn) (as salt: salt) [Example 49, α-(2-Thienyl)-4-quinolinemethanol], the melting point was 173 °C (dec.).
For `Cc1cccc2c(C(O)c3ccccn3)cc(Br)nc12` (stereo not drawn) [Example 64, 2-Bromo-8-methyl-α-(2-pyridyl)-4-quinolinemethanol], the melting point was 149 °C (dec.).
In the case of `Cc1cccc2c(C(O)c3ccccn3)cc(O)nc12` (stereo not drawn) [Example 88, 2-Hydroxy-8-methyl-α-(2-pyridyl)-4-quinolinemethanol], the melting point is reported as 215 °C (dec.).
`Oc1cc(C(O)(c2ccccc2)c2ccccc2)c2ccccc2n1` [Example 90, α,α-Diphenyl-2-hydroxy-4-quinolinemethanol] gave a melting point greater than 350 °C.

Target: human adenosine A2A receptors (Homo sapiens, UniProt P29274)
Sequence (P29274 whole entry): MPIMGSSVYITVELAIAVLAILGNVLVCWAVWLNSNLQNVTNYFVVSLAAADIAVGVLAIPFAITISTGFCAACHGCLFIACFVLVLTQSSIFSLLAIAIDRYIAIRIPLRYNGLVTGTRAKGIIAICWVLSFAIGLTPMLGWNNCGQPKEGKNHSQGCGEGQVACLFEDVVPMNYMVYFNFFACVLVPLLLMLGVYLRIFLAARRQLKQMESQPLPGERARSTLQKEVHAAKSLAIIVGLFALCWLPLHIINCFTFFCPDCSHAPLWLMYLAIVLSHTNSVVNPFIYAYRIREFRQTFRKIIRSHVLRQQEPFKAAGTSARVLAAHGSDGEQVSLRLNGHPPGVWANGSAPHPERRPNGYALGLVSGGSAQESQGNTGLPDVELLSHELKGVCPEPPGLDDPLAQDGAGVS
Test: Binding affinities at hA2A receptors, displacement of [3H]-CGS 21680
Conditions: in vitro binding, radioligand [3H]-CGS 21680
Text: The compounds were examined in an assay measuring in vitro binding to human adenosine A2A receptors by determining the displacement of the adenosine A2A receptor selective radioligand [^3H]-CGS 21680 using standard techniques.

`OC(c1ccccc1)c1cc(C(F)(F)F)nc2c(C(F)(F)F)cccc12` (stereo not drawn) [Example 1, 2,8-Bis(trinfluoromethyl)-α-phenyl-4-quinolinemethanol] and `OC(c1ccccc1Cl)c1cc(C(F)(F)F)nc2c(C(F)(F)F)cccc12` (stereo not drawn) [Example 18, 2,8-Bis(trifluoromethyl)-α-(2-chlorophenyl)-4-quinolinemethanol] are within 1.5-fold of each other in Ki: 1.7 µM for the first, 1.19 µM for the second.

Compared with `OC(c1cccs1)c1cc(C(F)(F)F)nc2c(C(F)(F)F)cccc12` (stereo not drawn) [Example 2, 2,8-Bis(trifluoromethyl)-α-(2-thienyl)-4-quinolinemethanol], `OC(c1ccsc1)c1cc(C(F)(F)F)nc2c(C(F)(F)F)cccc12` (stereo not drawn) [Example 3, 2,8-Bis(trifluoromethyl)-α-(3-thienyl)-4-quinolinemethanol] is 1.6-fold lower in Ki: 1.55 µM for the first, 0.954 µM for the second. The second binds more tightly here.

`OC(c1ccco1)c1cc(C(F)(F)F)nc2c(C(F)(F)F)cccc12` (stereo not drawn) [Example 4, 2,8-Bis(trifluoromethyl)-α-(2-furyl)-4-quinolinemethanol] and `OC(c1ccoc1)c1cc(C(F)(F)F)nc2c(C(F)(F)F)cccc12` (stereo not drawn) [Example 5, 2,8-Bis(trifluoromethyl)-α-(3-furyl)-4-quinolinemethanol] are within 1.5-fold of each other in Ki: 1.12 µM for the first, 1.03 µM for the second.

`OC(c1cc(C(F)(F)F)nc2c(C(F)(F)F)cccc12)C1CCCCC1` (stereo not drawn) [Example 7, 2,8-Bis(trifluoromethyl)-α-clohexyl-4-quinolinemethanol] and `Cc1cccc2c(C(O)C3CCCCC3)cc(C(F)(F)F)nc12` (stereo not drawn) [Example 29, α-Cyclohexyl-8-methyl-2-trifluoromethy-4-quinolinemethanol] are within 1.5-fold of each other in Ki: 0.852 µM for the first, 0.965 µM for the second.

`OC1(c2cc(C(F)(F)F)nc3c(C(F)(F)F)cccc23)CCc2ccccc21` (stereo not shown) [Example 10, 1-(2,8-Bis(tnfluoromethyl)-4-quinolinyl)-1-indanol] and `OC1(c2cc(C(F)(F)F)nc3c(C(F)(F)F)cccc23)CCCc2ccccc21` (stereo not shown) [Example 11, 1-(2,8-Bis(trifluoromethyl)-4-quinolinyl)-1,2,3,4-tetrabydro-1-naphthol] are within 1.5-fold of each other in Ki: 1.75 µM for the first, 1.36 µM for the second.

Going from `OC1Cc2ccccc2C1c1cc(C(F)(F)F)nc2c(C(F)(F)F)cccc12` (stereo not shown) [Example 12, 1-(2,8-Bis(trifluorometbyl)-4-quinolinyl)-2-indanol] to `OC(c1ccccc1Br)c1cc(C(F)(F)F)nc2c(C(F)(F)F)cccc12` (stereo not drawn) [Example 21, 2,8-Bis(trifluoromethyl)-α-(2-bromophenyl)-4-quinolinemethanol], the Ki falls from 1.9 µM to 0.743 µM (2.6-fold). The second binds more tightly here.

Going from `Cc1c(C(F)(F)F)nc2c(C(F)(F)F)cccc2c1C(O)c1cccs1` (stereo not drawn) [Example 16, 2,8-Bis(trifluoromethyl)-3-methyl-α-(2-thienyl)-4-quinolinemethanol] to `OC(c1c(Cl)cccc1Cl)c1cc(C(F)(F)F)nc2c(C(F)(F)F)cccc12` (stereo not drawn) [Example 20, 2,8-Bis(trifluoromethyl)-α-(2,6-dichlorophenyl)-4-quinolinemethanol], the Ki falls from 1.79 µM to 0.649 µM (2.8-fold).

`O=[N+]([O-])c1ccccc1C(O)c1cc(C(F)(F)F)nc2c(C(F)(F)F)cccc12` (stereo not drawn) [Example 19, 2,8-Bis(trifluoromethyl)-α-(2-nitrophenyl)-4-quinolinemethanol] and `OC(c1ccccc1F)c1cc(C(F)(F)F)nc2c(C(F)(F)F)cccc12` (stereo not drawn) [Example 22, 2,8-Bis(trifluoromethyl)-α-(2-fluorophenyl)-4-quinolinemethanol] are within 1.5-fold of each other in Ki: 1.74 µM for the first, 1.92 µM for the second.

First: COc1ccccc1C(O)c1cc(C(F)(F)F)nc2c(C(F)(F)F)cccc12 (stereo not shown) [Example 23]
Second: Oc1ccc(C(O)c2cc(C(F)(F)F)nc3c(C(F)(F)F)cccc23)cc1 (stereo not drawn) [Example 74, 2,8-Bis(trifluoromethyl)-α-(4-hydroxyphenyl)-4-quinolinemethanol]
The Ki of the first is 2.3-fold lower: 0.701 µM for the first, 1.63 µM for the second. The first binds more tightly here.

`Cc1cccc2c(C(O)c3ccccc3)cc(C(F)(F)F)nc12` (stereo not drawn) [Example 26, 8-Methyl-α-phenyl-2-trifluoromethyl-4-quinolinemethanol] and `Cc1cccc2c(C(O)c3ccccc3Cl)cc(C(F)(F)F)nc12` (stereo not drawn) [Example 27, α-(2-Chlorophenyl)-8-methyl-2-trinfluoromethyl-4-quinolinemethanol] are within 1.5-fold of each other in Ki: 1.11 µM for the first, 1.13 µM for the second.

First: Cc1cccc2c(C(O)c3ccsc3)cc(C(F)(F)F)nc12 (stereo not drawn) [Example 28, 8-Methyl-α-(3-thienyl)-2-trifluoromethyl-4-quinolinemethanol]
Second: OC(c1ccsc1)c1cc(C(F)(F)F)nc2c(Cl)cccc12 (stereo not drawn) [Example 47, 8-Chloro-α-(3-thienyl)-2-trifluoromethyl-4-quinolinemethanol]
The Ki of the first is 1.9-fold lower: 0.574 µM for the first, 1.07 µM for the second.

`CCc1cccc2c(C(O)c3ccsc3)cc(C(F)(F)F)nc12` (stereo not drawn) [Example 32, 8-Ethyl-α-(3-thienyl)-2-trifluoromethyl-4-quinolinemethanol] and `CC(O)(c1cc2ccccc2o1)c1cc(C(F)(F)F)nc2c(C(F)(F)F)cccc12` (stereo not shown) [Example 51] are within 1.5-fold of each other in Ki: 1.07 µM for the first, 1.52 µM for the second.
